Here are results for three compounds from PMC6037852, “Design of Diarylheptanoid Derivatives as Dual Inhibitors Against Class IIa Histone Deacetylase and β-amyloid Aggregation” (Frontiers in Pharmacology, 2018).

Data set [1] concerns SH-SY5Y cells. Particulars: 100 μM; ref Luchtman et al., 2013; cited from earlier work.
Data set [2] relates to primary rat mesencephalic neurons. The arrangement: method as in Luchtman et al., 2013. Particulars: 100 μM; ref Luchtman et al., 2013; cited from earlier work.
In data set [3] the target is T1, Aβ1-42 (Homo sapiens, UniProt P05067).
T1 construct: Aβ1-42 peptides were purchased from Kelowna International Scientific Inc; purchased Kelowna International Scientific Inc
In words: Inhibition of Aβ1-42 self-aggregation, thioflavin-T (ThT) fluorescence assay. It is filed as biochemical. Particulars: 24 h; for IC50: read-out: Beta-Amyloid Aggregation IC50; for inhibition at 10 µM: single concentration of 10 μM, read-out: Beta-Amyloid Aggregation Inhibition (%). The protocol: Inhibition of Aβ1-42 self-aggregation was measured by thioflavin-T (ThT) fluorescence assay ([Hudson et al., 2009]). Aβ1-42 peptides were purchased from Kelowna International Scientific Inc. To avoid Aβ1-42 self-aggregation before the start of the experiment, Aβ1-42 peptides were dissolved in hexafluoroisopropanol (HFIP) to a concentration of 1 mM. The clear solution containing the dissolved peptide was then aliquoted in micro centrifuge tube. The solution was evaporated under vacuum to remove HFIP to give monomeric Aβ1-42. The monomeric Aβ1-42 was dissolved in NaOH(aq) (60 mM) to give a stock solution (1 mM). The Aβ1-42 stock solution was diluted with 50 mM phosphate buffer (containing 0.15 M NaCl, pH 7.4) before use. Fresh ThT stock solution was prepared by dissolving ThT (Sigma, T3516) in phosphate buffer and filtrated through […] Nylon syringe filter. The ThT stock solution and 400 mM ethylenediaminetetraacetic acid (EDTA) were diluted into the phosphate buffer to generate the working solution as background. A mixture of working solution (ThT final concentration: 10 μM), Aβ1-42 stock solution (Aβ1-42 final concentration: 10 μM) and the tested compounds were incubated on BioShake iQ ThermoMixer (37°C, 700 rpm) for 24 h. Fluorescence was measured by Victor 2X microplate spectrophotometer (excitation λ = 440 nm, emission λ = 486 nm), and adapted for 96-well microtiter plates. The fluorescence intensities were recorded and the percent inhibition due to the presence of the inhibitors were calculated by the following formula: (1 - IFi/IFc) × 100% where IFi and IFc were the fluorescence intensities obtained for Aβ1-42 in the presence and in the absence of inhibitors after subtracting the background, respectively. The IC50 values were calculated by the linear regression model of the data. All experiments were performed in triplicate.

T1 sequence (P05067 672-713 limits assumed): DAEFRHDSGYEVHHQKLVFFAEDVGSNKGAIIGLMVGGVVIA

`C[n+]1ccc(-c2ccccc2)cc1.[I-]` [1-methyl-4-phenylpyridinium iodide]: the “Cell viability of SH-SY5Y cells” value in data set [1] was 80%. The “Viability of primary rat mesencephalic neurons” value in data set [2] was “roughly 75%”.
The IC50 is the concentration that gives 50% inhibition. One may read the inhibition as the relative decrease from the control value, in per cent. For the compound `O=c1c(O)c(-c2ccc(O)cc2O)oc2cc(O)cc(O)c12` [Morin, morin, reference compound], in data set [3], the IC50 amounted to 8.8 ± 0.7 µM and the inhibition at 10 µM turned out to be 56.9 ± 5.9%.
The corresponding values for `O=C(CCCCCCC(=O)Nc1ccccc1)NO` [SAHA, suberoylanilide hydroxamic acid, reference compound] are over 10 µM and -13.3 ± 1.8%.
